The source of these data is ChEMBL document CHEMBL1143744, “Modification of eukaryotic initiation factor 5A from Plasmodium vivax by a truncated deoxyhypusine synthase from Plasmodium falciparum: An enzyme with dual enzymatic properties” (Bioorg Med Chem, 2007).

In general, Ki refers to a measure of affinity in units of concentration, obtained from inhibition or displacement.

The assay addresses T1, Deoxyhypusine synthase (Plasmodium falciparum, UniProt Q9GSW0).
T1 sequence (Q9GSW0 whole entry): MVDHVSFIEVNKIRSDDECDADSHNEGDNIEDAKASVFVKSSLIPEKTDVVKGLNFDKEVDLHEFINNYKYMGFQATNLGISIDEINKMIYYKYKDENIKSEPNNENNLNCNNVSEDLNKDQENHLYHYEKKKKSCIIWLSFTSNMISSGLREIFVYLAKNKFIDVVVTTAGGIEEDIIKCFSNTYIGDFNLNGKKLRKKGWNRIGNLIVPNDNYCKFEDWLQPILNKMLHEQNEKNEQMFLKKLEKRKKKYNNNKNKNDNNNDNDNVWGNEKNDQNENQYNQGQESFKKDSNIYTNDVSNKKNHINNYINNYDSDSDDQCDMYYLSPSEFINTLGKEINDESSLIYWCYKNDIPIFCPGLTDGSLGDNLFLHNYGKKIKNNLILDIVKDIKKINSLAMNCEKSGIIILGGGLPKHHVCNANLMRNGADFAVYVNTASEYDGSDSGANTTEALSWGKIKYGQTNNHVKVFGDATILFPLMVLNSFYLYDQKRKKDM
In words: Inhibition of recombinant deoxyhypusine synthase in Plasmodium falciparum NF54.

On to `N=C(N)NCCCCCCCN`, for which the Ki turned out to be 0.1 µM. As to `NCCCCCCCN`, the Ki turned out to be 50 µM.
